Experimental data taken from US10183928B2, “Inhibitors of RET” (BLUEPRINT MEDICINES CORPORATION, priority 2016, dated 2019).

Target: wild type RET (Homo sapiens (Human), UniProt P07949)
Experiment: RET Wild Type Assay at KM (Caliper electrophoretic mobility shift)
Type: biochemical
Conditions: 25 μM ATP, 25° C., 120 minutes; read-out: Wild-type RET (RET Inhibitory Activity)

Sequence of wild type RET (P07949 29-1114): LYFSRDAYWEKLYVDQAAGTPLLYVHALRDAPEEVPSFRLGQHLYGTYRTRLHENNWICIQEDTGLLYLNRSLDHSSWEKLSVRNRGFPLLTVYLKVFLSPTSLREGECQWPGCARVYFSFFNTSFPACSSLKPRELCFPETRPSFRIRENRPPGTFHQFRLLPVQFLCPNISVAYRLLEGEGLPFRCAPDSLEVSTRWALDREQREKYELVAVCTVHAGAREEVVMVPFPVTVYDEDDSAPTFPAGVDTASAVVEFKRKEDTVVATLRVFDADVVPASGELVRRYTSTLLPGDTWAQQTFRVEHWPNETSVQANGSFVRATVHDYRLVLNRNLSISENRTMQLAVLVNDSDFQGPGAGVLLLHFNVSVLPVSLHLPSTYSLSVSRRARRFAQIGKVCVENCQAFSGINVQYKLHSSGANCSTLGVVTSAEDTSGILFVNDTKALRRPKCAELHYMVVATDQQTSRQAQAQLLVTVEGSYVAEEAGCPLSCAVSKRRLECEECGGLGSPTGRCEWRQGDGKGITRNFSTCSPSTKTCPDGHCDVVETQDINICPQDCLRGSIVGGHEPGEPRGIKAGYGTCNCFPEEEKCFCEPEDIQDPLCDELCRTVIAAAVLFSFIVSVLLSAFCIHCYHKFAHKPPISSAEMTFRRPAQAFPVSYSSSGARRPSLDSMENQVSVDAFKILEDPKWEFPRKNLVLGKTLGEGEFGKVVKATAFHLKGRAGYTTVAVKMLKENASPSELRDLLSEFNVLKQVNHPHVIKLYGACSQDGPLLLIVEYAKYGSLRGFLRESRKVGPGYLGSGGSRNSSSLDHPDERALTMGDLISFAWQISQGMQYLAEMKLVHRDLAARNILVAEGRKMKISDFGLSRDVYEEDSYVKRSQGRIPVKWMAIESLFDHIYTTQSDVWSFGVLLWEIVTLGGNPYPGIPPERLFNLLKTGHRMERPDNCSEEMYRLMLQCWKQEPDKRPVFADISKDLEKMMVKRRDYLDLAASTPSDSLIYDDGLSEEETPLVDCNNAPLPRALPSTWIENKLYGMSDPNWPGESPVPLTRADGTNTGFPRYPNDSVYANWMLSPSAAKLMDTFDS

Compound	IC50 [nM]
Cc1cc(Nc2cc(C)[nH]n2)nc([C@H]2C[C@H](C(=O)N[C@H](C)c3cnc(-n4cc(F)cn4)cn3)C2)c1 [Compound 104]	< 1
CO[C@]1(C(=O)N[C@@H](C)c2cnc(-n3cc(F)cn3)cn2)C[C@H](c2nc(C)cc(Nc3cc(C)[nH]n3)n2)C1 [Compound 123]	< 1
Cc1cc(Nc2cc(C)[nH]n2)nc([C@H]2C[C@@H](C(=O)N[C@@H](C)c3ccc(-n4cc(F)cn4)nc3)C2)c1 [Compound 103]	10 to 100
Cc1cc(Nc2cc(C)[nH]n2)nc([C@]2(F)C[C@](C)(C(=O)N[C@@H](C)c3ccc(-n4cc(F)cn4)nc3)C2)c1 [Compound 126]	< 100
Cc1cc(Nc2cc(C)[nH]n2)nc([C@]2(O)C[C@@H](C(=O)N[C@@H](C)c3ccc(-n4cc(F)cn4)nc3)C2)c1 [Compound 109]	< 1
CO[C@]1(C(=O)N[C@@H](C)c2ccc(-n3cc(F)cn3)nc2)C[C@@](O)(c2cc(C)cc(Nc3cc(C)[nH]n3)n2)C1 [Compound 128]	< 100
Cc1cc(Nc2cc(C)[nH]n2)nc([C@]2(O)C[C@@H](C(=O)N(C)[C@@H](C)c3ccc(-n4cc(F)cn4)nc3)C2)c1 [Compound 116]	1.01 to 10
CO[C@]1(c2cc(C)cc(Nc3cc(C)[nH]n3)n2)C[C@H](C(=O)N[C@@H](C)c2ccc(-n3cc(F)cn3)nc2)C1 [Compound 117, (1S,3R)—N—((S)-1-(6-(4-fluoro-1H-pyrazol-1-yl)pyridin-3-yl)ethyl)-3-methoxy-3-(4-methyl-6-((5-methyl-1H-pyrazol-3-yl)amino)pyridin-2-yl)cyclobutane-1-carboxamide]	< 100
CO[C@]1(C(=O)N[C@@H](C)c2ccc(-n3cc(F)cn3)nc2)C[C@H](c2cc(C)nc(Nc3cc(C)[nH]n3)n2)C1 [Compound 122]	< 1
CO[C@]1(C(=O)N[C@@H](C)c2ccc(-n3cc(F)cn3)nc2)C[C@](O)(c2cc(C)cc(Nc3cc(C)[nH]n3)n2)C1 [Compound 127]	< 1
CO[C@]1(C(=O)N[C@@H](C)c2ccc(-n3cc(F)cn3)nc2)C[C@H](c2nc(C)cc(Nc3cc(C)[nH]n3)n2)C1 [Compound 121]	< 1

The remaining lines, values ahead:

IC50 [nM]	Compound
1.01 to 10	Cc1cc(Nc2cc(C)[nH]n2)nc([C@H]2C[C@@](C)(C(=O)N[C@@H](C)c3ccc(-n4cc(F)cn4)nc3)C2)n1 [Compound 107, (1S,3R)—N—((S)-1-(6-(4-fluoro-1H-pyrazol-1-yl)pyridin-3-yl)ethyl)-1-methyl-3-(4-methyl-6-((5-methyl-1H-pyrazol-3-yl)amino)pyrimidin-2-yl)cyclobutane-1-carboxamide]
1.01 to 10	CO[C@]1(C(=O)NCc2cnc(-n3cc(F)cn3)cn2)C[C@H](c2cc(C)nc(Nc3cc(C)[nH]n3)n2)C1 [Compound 131]
< 1	CO[C@]1(C(=O)N[C@@H](C)c2ccc(-n3cc(F)cn3)nc2)C[C@H](c2cc(C)cc(Nc3cc(C)[nH]n3)n2)C1 [Compound 120]
10 to 100	Cc1cc(Nc2cc(C)[nH]n2)nc([C@]2(F)C[C@H](C(=O)N[C@@H](C)c3ccc(-n4cc(F)cn4)nc3)C2)c1 [Compound 113, (1S,3R)-3-fluoro-N—((S)-1-(6-(4-fluoro-1H-pyrazol-1-yl)pyridin-3-yl)ethyl)-3-(4-methyl-6-(5-methyl-1H-pyrazol-3-ylamino)pyridin-2-yl)cyclobutanecarboxamide]
< 1	Cc1cc(Nc2cc(C)[nH]n2)nc([C@H]2C[C@](C)(C(=O)N[C@@H](C)c3cnc(-n4cc(F)cn4)cn3)C2)n1 [Compound 110]
< 1	CO[C@]1(C(=O)N[C@@H](C)c2cnc(-n3cc(F)cn3)cn2)C[C@H](c2cc(C)nc(Nc3cc(C)[nH]n3)n2)C1 [Compound 124]
< 1	Cc1cc(Nc2cc(C)[nH]n2)nc([C@H]2C[C@H](C(=O)N[C@@H](C)c3ccc(-n4cc(F)cn4)nc3)C2)n1 [Compound 105]
< 1	Cc1cc(Nc2cc(C)[nH]n2)nc([C@H]2C[C@H](C(=O)N[C@H](C)c3ccc(-n4cccn4)nc3)C2)c1 [Compound 101]
< 1	Cc1cc(Nc2cc(C)[nH]n2)nc([C@H]2C[C@](C)(C(=O)N[C@@H](C)c3ccc(-n4cc(F)cn4)nc3)C2)n1 [Compound 108, (1R,3S)—N—((S)-1-(6-(4-fluoro-1H-pyrazol-1-yl)pyridin-3-yl)ethyl)-1-methyl-3-(4-methyl-6-((5-methyl-1H-pyrazol-3-yl)amino)pyrimidin-2-yl)cyclobutane-1-carboxamide]
< 1	Cc1cc(Nc2cc(C)[nH]n2)nc([C@H]2C[C@H](C(=O)N[C@@H](C)c3ccc(-n4cc(F)cn4)nc3)C2)c1 [Compound 102]
< 1	Cc1cc(Nc2cc(C)[nH]n2)nc([C@]2(O)C[C@@](C)(C(=O)N[C@@H](C)c3ccc(-n4cc(F)cn4)nc3)C2)c1 [Compound 119]
1.01 to 10	Cc1cc(Nc2cc(C)[nH]n2)nc([C@]2(F)C[C@@H](C(=O)N[C@@H](C)c3ccc(-n4cc(F)cn4)nc3)C2)c1 [Compound 114]
< 100	Cc1cc(Nc2cc(C)[nH]n2)nc([C@]2(O)C[C@](C)(C(=O)N[C@@H](C)c3ccc(-n4cc(F)cn4)nc3)C2)c1 [Compound 118]
< 1	Cc1cc(Nc2cc(C)[nH]n2)nc([C@H]2C[C@H](C(=O)NCc3ccc(-n4cccn4)nc3)C2)c1 [Compound 100]
